Laboratory results as given in US8198292B2, “Vinpocetine and eburnamonine derivatives for promoting bone growth, treating renal damage and cancer, and devices thereof” (Osteogenex, Inc., priority 2008, dated 2012).
Structures can show the parent of a compound that is named as a salt.

Experiments:
Format in all cases: in vivo
[1] = system: C57BL/6 mice; experiment: Trabecular bone volume of the proximal tibia by micro-CT, daily i.p. treatment for 30 days; settings: for increase in tibia long bone bone-volume/total volume over baseline control: 30 days, micro-CT
Method: Using the assay described above and in Journal of Bone and Mineral Research 2006, 21(11), 1738-1749 (incorporated herein in its entirety), compounds of the present invention can be identified as promoting bone growth. For example, the mouse test animal is treated with a predetermined dose of a SOST antagonist candidate for a complete dosing schedule. A control mouse is treated with a control solution, preferably a non-irritating buffer solution or other carrier. Once the dosing schedule has been completed, both test and control animals are examined with sacrifice using micro-CT to determine the quantity of bone formation present.
(§1) Four month old male C57BL/6 mice were treated daily with saline vehicle or the sclerostin inhibitor of eburnamonine phosphate at several doses (via i.p) for 30 days. Study endpoints included a biochemical marker of bone formation; osteocalcin, measured by EIA Elisa, and measurement of trabecular bone volume by mico-CT analysis on the proximal tibia and spine (lumbar 5). […] See also FIG. 3, showing increase in bone volume for the tibia: 5 mg/kg (D) and 0.33 mg/kg (E).

[2] = system: C57BL/6 mice; experiment: Serum osteocalcin (bone formation marker) by EIA Elisa, daily i.p. treatment for 30 days; settings: for increase in osteocalcin serum levels: FIG. 4
Method: as §1

[3] = system: C57BL/6 mice; experiment: Bone volume of the spine (lumbar 5) by micro-CT, daily i.p. treatment for 30 days; settings: i.p. daily 30 days, dose not stated
Method: as §1

[4] = system: C57BL/6 mice; experiment: Bone volume of the tibia by pQCT after IP treatment (procedure of Example 2); settings: 10 mg/kg IP
Method: Four month old male C57BL/6 mice were treated daily with saline vehicle or the sclerostin inhibitor of eburnamonine phosphate at several doses (via i.p) for 30 days. […] See also FIG. 3, showing increase in bone volume for the tibia: 5 mg/kg (D) and 0.33 mg/kg (E). […] Using the procedure set forth in Example 2, vinpocetine citrate was investigated for bone growth.

| SMILES | increase in tibia long bone bone-volume/total volume over baseline control ([1]; FIG. 1 (B), 5 mg/kg i.p. daily) [%] | increase in tibia long bone bone-volume/total volume over baseline control ([1]; FIG. 1 (C), 1 mg/kg i.p. daily) [%] | increase in tibia long bone bone-volume/total volume compared to baseline controls ([1]; FIG. 3 (D), 5 mg/kg) [%] | increase in tibia long bone bone-volume/total volume compared to baseline controls ([1]; FIG. 3 (E), 0.33 mg/kg) [%] | percent change in serum osteocalcin increase versus saline controls ([2]; FIG. 2, 5 mg/kg i.p. daily, 30 days, mice) [%] | increase in osteocalcin serum levels ([2]; 0.33 mg/kg, mice) [%] | increase in bone volume of lumbar 5 (U-CT) [3] [%] | increase in osteocalcin serum levels ([2]; 10 mg/kg, over baseline) [%] | increase in bone volume of the tibia (pQCT) [4] [%] |
| --- | --- | --- | --- | --- | --- | --- | --- | --- | --- |
| CCC12CCCN3CCc4c(n(c5ccccc45)C(=O)C1)C32 (stereo not drawn) [eburnamonine phosphate] | 17 | 10 | 9 | 17 | 35 | 39 | 52 |  |  |
| CCOC(=O)C1=CC2(CC)CCCN3CCc4c(n1c1ccccc41)C32 (stereo not drawn) [vinpocetine citrate] |  |  |  |  |  |  |  | 62 | 8 |
